row,Compound,melting point
1,O=C1OCCN1c1ccc(NCCO)c([N+](=O)[O-])c1,184 °C
2,COc1cc(N2CCOCC2)ccc1Nc1nc(Nc2ccc3c(c2OC)CCCC(=O)N3C)ncc1Cl,197 to 199 °C
3,C=CCNC(=O)c1cc(CCc2cc3c(s2)-n2c(C)nnc2CN=C3c2ccccc2Cl)ccc1CC(=O)Nc1cccc(/C=C/c2nc(C3CCC3)cs2)c1,127 to 132 °C
4,O=C/C=C/C=C(c1ccccc1)c1ccccc1,71 to 72 °C
5,CC(=O)N1CCN(c2nc(N)ncc2Oc2ccc(Cl)cc2)CC1,153 to 157 °C
6,O=C1NCC2(CCN(CC(O)COc3cccc4ccccc34)CC2)O1 (stereo not given),137 to 140 °C
7,CCC1(O)CC(=O)OCc2c1cc1n(c2=O)Cc2c-1nc1ccccc1c2Cc1ccccc1 (stereo not given),> 250 °C
8,CCCCn1c(NNC(=S)NC(C)=O)cc(=O)n(CCC)c1=O,149 to 152 °C
9,COc1nc(SC)nc(OC)c1C1CC(=O)C=C(O)C1 (stereo not given),195 to 200 °C
10,C[C@@H](NC(=O)c1ccc(-c2csnn2)cc1)[C@](O)(Cn1cncn1)c1ccc(F)cc1F,196 to 198 °C
11,COC(=O)c1ccc(-c2cccc(OC)c2)nc1,89.5 to 90 °C
12,O=C(c1ccc(F)cc1)c1ccc2nc(Cl)nc(-c3cccc(Cl)c3)c2c1,138 °C
13,CCc1nnc(N2N=C(c3ccc([N+](=O)[O-])cc3)c3cc4c(cc3C[C@H]2C)OCO4)s1,105 °C
14,Cc1ccc(C(=O)Nc2ccc3ccc(Cl)nc3n2)cc1,228 °C
15,COC(=O)[C@H]1CC[C@H](NC(=O)c2cc(-c3ccc(C#N)cc3)nnc2N2CCOCC2)CC1,269 to 271 °C
16,COc1ccc(C(=O)c2ccccc2)cc1OC1CCCC1,73.5 to 75 °C
17,CC1(CN2CCN(c3ccc(C(F)(F)F)cc3)CC2)Cn2cc([N+](=O)[O-])nc2O1 (stereo not given),159 to 160 °C
18,CC(C)(C)c1cc(CN)c(O)c(I)n1,162 to 165 °C
19,COc1cc(C#CC(=O)NCCCNC(=O)C#Cc2cc(OC)c(OC)c(OC)c2)cc(OC)c1OC,158 to 160 °C

row,Compound,melting point
1,CN(C)C1(c2ccccc2)CCC(NC(=S)NCCc2c[nH]c3ccccc23)CC1 (stereo not given),98 to 103 °C
2,COC(=O)c1nn(Cc2ccccc2)c2ccccc12,72 to 73 °C
3,CCc1nnc(-c2ccc(NC)cc2)n1-c1ccc(OC)cc1,198 °C
4,COC(=O)c1cc(O)nn1C1CCCCC1,195 to 196 °C
5,CC(C)(C)OC(=O)N1CCC(CNC(=O)c2cc(Cl)c(N)c3c2OCC3)C(O)C1 (stereo not given),218 °C
6,O=C(Cc1cccc2ccccc12)N(O)[C@H](CN1CCCC1)c1ccccc1,81 to 83.5 °C
7,C[C@@H](N[C@@H](Cc1c[nH]cn1)C(=O)O)[C@H](NC(=O)[C@@H](N)CCCCN)C(=O)O,175 to 179 °C
8,Nc1cc(C(=O)c2ccc(C(=O)c3ccc(F)c(N)c3)cc2)ccc1F,220 to 221 °C
9,CN1CCN(c2n[nH]c3ccccc23)CC1,111 to 113 °C
10,CC(C)c1nn2ccccc2c1C=O,81 to 81.5 °C
11,CCc1cn2c(N)c(Cl)cc(C(=O)NCC3CCN(CC(C)(C)OC)CC3)c2n1,211 °C
12,COC(=O)c1cnc(C(=O)OC)c([N+](=O)[O-])c1,82 to 86 °C
13,Cc1sc2c(Cl)c(Cl)c(O)cc2c1C,143 to 144 °C
14,COc1cc2ncnc(Nc3cccc(N=[N+]=[N-])c3)c2cc1OC,110 to 113 °C
15,COc1ccc2c(c1)c(=O)n1nc(C#N)cc1n2C,316 to 320 °C
16,CC1CCCN(CCNc2ccnc3cc(Cl)ccc23)C1 (racemic),148 to 151 °C
17,CN1C(=O)C(NC(=O)Nc2cccc(C#N)c2)C(=O)N(c2ccccc2)c2ccccc21 (stereo not given),> 250 °C
18,CCCn1cc(C(=O)O)c2ccc(Cl)cc21,179 to 180 °C
19,Clc1ccc2nc(-c3ccccc3)cc(Cl)c2c1,114 to 116 °C

row,Compound,melting point
1,CCn1cc(C(=O)O)c(=O)c2ccc(N3CCN(C)CC3)cc21,215 °C
2,COC1(c2cc(F)cc(OCC#Cc3ccc(Cc4nc(-c5ccccc5)c(-c5ccc(S(N)(=O)=O)cc5)o4)cc3)c2)CCOCC1,86 to 100 °C
3,CCOC(=O)/C=C/C=C(c1ccc(Cl)cc1)c1ccc(Cl)cc1,98 to 100 °C
4,CC1CC=C(Nc2ccc(Br)cc2)c2ncc(C(=O)O)c(=O)n21 (stereo not given),202 to 204 °C
5,FC(F)Sc1nnc(-c2ccc(Cl)cc2)s1,74 to 76 °C
6,CN1CCCC(NC(=O)c2ccc3[nH]ncc3c2)C1 (stereo not given),228 to 229 °C
7,O=C1N(Cc2ccccn2)c2ccc3ncsc3c2C12COc1cc3c(cc12)OCCO3 (stereo not given),156 to 158 °C
8,COc1ccc(C2(C#Cc3cccc(-c4nnc(C)s4)c3)CCCC(=O)C2)cc1OC1CCCC1 (stereo not given),97 to 99 °C
9,N#Cc1cc(O)c(O)c([N+](=O)[O-])c1,175 to 178 °C
10,O=C1C(=O)c2ccccc2C2=C1SCC(CN1CCC(O)CC1)O2 (stereo not given),98 to 100 °C
11,C[C@@H]1CCCC[C@@H]1Nc1c(C(N)=O)cnc2[nH]c(-c3ccc(F)cc3)cc12,> 280 °C
12,N#CC1Cc2ccc(Nc3ccncc3N)cc2C1 (stereo not given),98 to 100 °C
13,CC(C)(C)OC(=O)n1cnc2c(I)cc(F)cc21,73 to 74 °C
14,OCCc1ccc(OCCCCl)cc1,49 to 50 °C
15,O=C(CC1=C(n2nc(-c3c(-c4ccccc4)nn4ccccc34)ccc2=O)CCCC1)N1CCCCC1,184 to 185 °C
16,CC(C)CN1C(=O)CC[C@H]1COC(c1ccccc1)(c1ccccc1)c1ccccc1,91 to 93 °C
17,NC(=O)c1nccn1C1Cc2cc(Br)ccc2C1=O (stereo not given),240 °C
18,COC(=O)CNc1ccc(C(C)C)cc1,35 to 36 °C

# Results, then the molecule that gave them:
row,melting point,Compound
1,116 to 118 °C,Cc1cccc(NCCC(N)=S)c1C
2,143 to 150 °C,CCOC(=O)c1cn(-c2cc(NC(=O)OC(C)(C)C)c(F)cc2F)c2c(Cl)c(N)c(F)cc2c1=O
3,211 to 212 °C,CNC(=O)c1cccc(NC(=O)Cc2ccccc2Cl)c1
4,127 to 128 °C,CCOP(=O)(/C=C/c1cn(-c2ccccc2)nc1OCc1ccc(OCc2nc(-c3cccc(C(N)=O)c3)oc2C)c(OC)c1)OCC
5,> 250 °C,N#CC1=C(c2ccccc2)Nc2n[nH]cc2C1c1cccc(C(F)(F)F)c1Cl (stereo not given)
6,190 to 192 °C,COC(=O)C1=C(C)Nc2ccccc2NC1c1ccccc1C(F)(F)F (stereo not given)
7,116 to 117 °C,COc1ccc(C=O)cc1C(=O)NCc1ccc(C(F)(F)F)cc1
8,130 to 131 °C,CC(=O)ON1CC(NC(=O)OCc2ccccc2)C1=O (stereo not given)
9,100 to 102 °C,CN(C(=O)Nc1nc(OCC(F)(F)F)cc(OCC(F)(F)F)n1)c1ccc(OC(F)(F)F)cc1
10,169 to 172 °C,CC(C)(C)OC(=O)NN=Cc1ccc(-c2ccccn2)cc1
11,152 °C,CCn1cc(C=O)c2nc(N3CCN(Cc4ccccc4)CC3)ncc2c1=O
12,143 to 146 °C,Cc1ccccc1C(=O)Nc1ccc(-n2nc(C(F)(F)F)cc2C2CC2)cc1
13,170 to 171 °C,CCCOc1ccccc1C1=NC(=O)C2=CN=NC2=N1
14,181 to 182 °C,CCc1nc2c(N)nc3ccccc3c2n1CCCCNS(=O)(=O)c1ccccc1
15,104 to 106 °C,CC(C)NC(=O)c1coc2ccccc2c1=O
16,146 to 148 °C,CCOC(=O)c1sc(-n2cnn(CC3CC3(F)F)c2=O)nc1C (stereo not given)
17,142 to 145 °C,COC(=O)C(C)(SC)c1ccc(N2C(=O)c3ccccc3C2=O)cc1 (stereo not given)
18,92 to 97 °C,CC(C)C(C(=O)O)c1ccc(OC(F)(F)C(F)F)cc1 (stereo not given)
19,76 to 83 °C,COC1=CC=C2C(=CCC(C)(c3ccc(OC)cc3)C2CCCCCCO)C1 (stereo not given)
20,112 °C,CCOCC1=C(C(=O)OCC)C(c2ccccc2C(F)(F)F)C(C(=O)OCC)=C(C)N1 (stereo not given)
21,169 to 170 °C,CCOC(=O)c1cccc(NC(=O)c2ccc(OC)c(Nc3cccc(C(F)(F)F)c3)c2)c1
22,99 to 103 °C,O=C(COc1ccccc1C1NC(C(=O)O)CS1)NCCO[N+](=O)[O-] (stereo not given)

row,melting point,Compound
1,213 to 214 °C,CC(C)(C)OC(=O)N1CCC2(CC1)C(=O)NCN2c1ccccc1
2,116 to 117 °C,COCCNC(=O)c1cccc(-c2c(F)ccc3cc(Cc4cccc(C(F)(F)F)c4)sc23)c1
3,70 to 78 °C,CCOC(=O)c1c(N(C(=O)OC(C)(C)C)C(=O)OC(C)(C)C)sc(C)c1C
4,112 to 115 °C,CCc1ccc(C(O)CNC(=C[N+](=O)[O-])NCCSCc2cc(C)c(CN(C)C)s2)cc1 (stereo not given)
5,140 to 141 °C,CSc1nc(C)ccc1NC(=O)CCCCCSc1nc2ccccc2o1
6,168 to 170 °C,CCOC(=O)C(C)(C)n1c(=O)[nH]c2cccc(F)c2c1=O
7,146 to 147 °C,Cc1cc(C(=O)Nc2ccc(OCC(C)(C)C)c(C#N)c2)nn1-c1ccc(F)cc1
8,70 to 72 °C,CNC(=O)n1nc(Oc2ccc(C(F)(F)F)cc2[N+](=O)[O-])cc1C
9,147 to 148 °C,CCCCc1c(OC)cc(C)c(C=CC(C)=CC=CC(C)=CC(=O)OCC)c1C
10,146 to 148 °C,Cc1cnc(Cl)c(C(=O)N(CCO)Cc2cc(C(F)(F)F)cc(C(F)(F)F)c2)c1-c1ccccc1
11,300 to 302 °C,CCOC(=O)c1cc2c3n(ccc-2n1)C([N+](=O)[O-])C(C)=N3 (stereo not given)
12,231 to 233 °C,Cc1ccc(Oc2ccc(-n3cc(C(=O)O)cn3)cc2)c(O)c1
13,71 to 74 °C,Cc1oc(-c2ccccc2)nc1CCCCCC(CO)CO
14,132 °C,COC(=O)c1sc(-c2ccc(F)cc2)cc1-c1nnn(C)n1
15,229 to 231 °C,COc1ccccc1Cc1n[nH]c2c1c(=O)n(-c1cccc(C(F)(F)F)c1)c1ncccc21
16,176 to 178 °C,O=C(O)c1ccc(C(=O)NC/C=C/c2ccccc2)cc1
17,200 to 202 °C,CC(C)c1ccc(N(Cc2ccc(N(C)C)cc2)C(=O)C2CCCc3c(O)cccc32)cc1 (stereo not given)
18,217 to 218 °C,O=C(N[C@H](Cc1ccc(C(F)(F)F)cc1)[C@@H](O)c1ccccc1)c1ccc(F)c2ccccc12 (racemic)
19,209 to 210 °C,COc1ccc2c(c1)NC(=O)C(C(=O)N(C)C)C2 (stereo not given)
20,255 to 260 °C,CCc1c(C(=O)c2cc(C)cc(C)c2)n(CC=C(C)C)c(=O)[nH]c1=O
21,75 to 79 °C,O=C(O)[C@@H]1CCc2ccccc2N1C(=O)OCc1ccccc1
22,126 to 128 °C,CC(=O)Nc1nc2c(s1)CCN(C(=O)OCc1ccccc1)CC2
